Tested on: 855422-203-R-J1-PDC spheroids with HUVEC/MSC, viability
Assay: Anticancer human tumor 855422-203-R-J1-PDC patient-derived bladder carcinoma cell line growth inhibition [PI3K]
Conditions: for viability, T/C: stronger effect = lower value
Outline: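 Targeted small molecules plus PI3K inhibitors, half-log dose series from Cmax (default top 10 microM), were applied to heterotypic spheroids of cancer cells with HUVEC and MSCs. Viability indicated growth inhibition.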

[1] = curve of first compound, second compound 0.0316 µM
[2] = curve of first compound, second compound 0.1 µM
[3] = curve of first compound, second compound 0.316 µM
[4] = curve of first compound, second compound 1 µM
[5] = curve of first compound, second compound 3.16 µM
[6] = curve of first compound, second compound 10 µM
[7] = second compound 0.0316 µM, first compound 0.0316 µM
[8] = second compound 0.0316 µM, first compound 0.1 µM
[9] = second compound 0.0316 µM, first compound 0.316 µM
[10] = second compound 0.0316 µM, first compound 1 µM
[11] = second compound 0.0316 µM, first compound 3.16 µM
[12] = second compound 0.0316 µM, first compound 10 µM
[13] = second compound 0.1 µM, first compound 0.0316 µM
[14] = second compound 0.1 µM, first compound 0.1 µM
[15] = second compound 0.1 µM, first compound 0.316 µM
[16] = second compound 0.1 µM, first compound 1 µM
[17] = second compound 0.1 µM, first compound 3.16 µM
[18] = second compound 0.1 µM, first compound 10 µM
[19] = second compound 0.316 µM, first compound 0.0316 µM
[20] = second compound 0.316 µM, first compound 0.1 µM
[21] = second compound 0.316 µM, first compound 0.316 µM
[22] = second compound 0.316 µM, first compound 1 µM
[23] = second compound 0.316 µM, first compound 3.16 µM
[24] = second compound 0.316 µM, first compound 10 µM
[25] = second compound 1 µM, first compound 0.0316 µM
[26] = second compound 1 µM, first compound 0.1 µM
[27] = second compound 1 µM, first compound 0.316 µM
[28] = second compound 1 µM, first compound 1 µM
[29] = second compound 1 µM, first compound 3.16 µM
[30] = second compound 1 µM, first compound 10 µM
[31] = second compound 3.16 µM, first compound 0.0316 µM
[32] = second compound 3.16 µM, first compound 0.1 µM
[33] = second compound 3.16 µM, first compound 0.316 µM
[34] = second compound 3.16 µM, first compound 1 µM
[35] = second compound 3.16 µM, first compound 3.16 µM
[36] = second compound 3.16 µM, first compound 10 µM
[37] = second compound 10 µM, first compound 0.0316 µM
[38] = second compound 10 µM, first compound 0.1 µM
[39] = second compound 10 µM, first compound 0.316 µM
[40] = second compound 10 µM, first compound 1 µM
[41] = second compound 10 µM, first compound 3.16 µM
[42] = second compound 10 µM, first compound 10 µM
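Also: agents incubated with spheroids for one week before read-out.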
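For viability, T/C in this document: 100% = DMSO vehicle-treated control wells.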

Cc1nc(NC(=O)N2CCCC2C(N)=O)sc1-c1ccnc(C(C)(C)C(F)(F)F)c1 (stereo not given)
viability, T/C (compound 0.0316 µM): 107% [middle of 8 runs]
viability, T/C (compound 1 µM): 75.8% [middle of 8 runs]
viability, T/C (compound 3.16 µM): 43% [middle of 8 runs]
viability, T/C (compound 10 µM): 22.2% [middle of 8 runs]
IC50 (compound alone, run of 05/08/2023): 2.53 µM [middle of 8 runs]

CCCS(=O)(=O)Nc1ccc(F)c(C(=O)c2c[nH]c3ncc(-c4ccc(Cl)cc4)cc23)c1F + CC(Nc1ncnc2nc[nH]c12)c1cc2cccc(Cl)c2c(=O)n1-c1ccccc1
IC50 [1]: 3.7 µM
IC50 [2]: 3.69 µM
IC50 [3]: 4.35 µM
IC50 [4]: 4.64 µM
IC50 [5]: 4.24 µM
IC50 [6]: 3.69 µM
viability, T/C [7]: 118%
viability, T/C [8]: 88.6%
viability, T/C [9]: 102%
viability, T/C [10]: 85.9%
viability, T/C [11]: 59%
viability, T/C [12]: 0.26%
viability, T/C [13]: 110%
viability, T/C [14]: 109%
viability, T/C [15]: 103%
viability, T/C [16]: 88.1%
viability, T/C [17]: 58.1%
viability, T/C [18]: 0.13%
viability, T/C [19]: 100%
viability, T/C [20]: 97.9%
viability, T/C [21]: 90.7%
viability, T/C [22]: 88.4%
viability, T/C [23]: 70.4%
viability, T/C [24]: 0.12%
viability, T/C [25]: 92.8%
viability, T/C [26]: 98.2%
viability, T/C [27]: 98%
viability, T/C [28]: 91.6%
viability, T/C [29]: 75%
viability, T/C [30]: 0.2%
viability, T/C [31]: 89.2%
viability, T/C [32]: 100%
viability, T/C [33]: 99.7%
viability, T/C [34]: 78.2%
viability, T/C [35]: 70%
viability, T/C [36]: 0.61%
viability, T/C [37]: 87%
viability, T/C [38]: 83.4%
viability, T/C [39]: 77.8%
viability, T/C [40]: 76.9%
viability, T/C [41]: 58.2%
viability, T/C [42]: 0.42%

C[C@@H](NC(=O)c1ncnc(N)c1Cl)c1ncc(C(=O)Nc2cc(C(F)(F)F)c(Cl)cn2)s1
viability, T/C (compound 0.0316 µM): 107% [middle of 4 runs]
viability, T/C (compound 0.1 µM): 99.5% [middle of 4 runs]
viability, T/C (compound 0.316 µM): 118% [middle of 4 runs]
viability, T/C (compound 3.16 µM): 122% [middle of 4 runs]
viability, T/C (compound 10 µM): 120% [middle of 4 runs]
IC50 (curve of compound): > 10 µM

C=CC(=O)N1CCN(c2nc(=O)n(-c3c(C)ccnc3C(C)C)c3nc(-c4c(O)cccc4F)c(F)cc23)C(C)C1 (stereo not given) + Cc1nc(NC(=O)N2CCCC2C(N)=O)sc1-c1ccnc(C(C)(C)C(F)(F)F)c1
IC50 [1]: > 10 µM
IC50 [2]: > 10 µM
IC50 [3]: > 10 µM
IC50 [4]: > 10 µM
IC50 [5]: < 0.0316 µM
IC50 [6]: < 0.0316 µM
viability, T/C [7]: 111%
viability, T/C [8]: 87.8%
viability, T/C [9]: 119%
viability, T/C [10]: 104%
viability, T/C [11]: 109%
viability, T/C [12]: 128%
viability, T/C [13]: 108%
viability, T/C [14]: 86.8%
viability, T/C [15]: 106%
viability, T/C [16]: 103%
viability, T/C [17]: 117%
viability, T/C [18]: 114%
viability, T/C [19]: 94.7%
viability, T/C [20]: 87.3%
viability, T/C [21]: 104%
viability, T/C [22]: 99.5%
viability, T/C [23]: 117%
viability, T/C [24]: 109%
viability, T/C [25]: 75.9%
viability, T/C [26]: 76.1%
viability, T/C [27]: 82.6%
viability, T/C [28]: 92.5%
viability, T/C [29]: 101%
viability, T/C [30]: 97.4%
viability, T/C [31]: 50.6%
viability, T/C [32]: 50.9%
viability, T/C [33]: 58.5%
viability, T/C [34]: 64%
viability, T/C [35]: 80.4%
viability, T/C [36]: 67.9%
viability, T/C [37]: 26.9%
viability, T/C [38]: 27.1%
viability, T/C [39]: 31.5%
viability, T/C [40]: 37.2%
viability, T/C [41]: 41.2%
viability, T/C [42]: 34.2%

Source: PubChem BioAssay AID1963967 (Molecular Pharmacology Branch, DTP, NCI, 2024)
